From patent US20110300154A1, “TREATMENT OF AIRWAY HYPERREACTIVITY” (CHILDREN'S MEDICAL CENTER CORPORATION, priority 2007, published 2011)
“Also recorded” adds a separate entry of the source.

How the values were obtained:
iNKT cells [1] = test: AHR (lung resistance to methacholine) after nebulized α-GalCer challenge, cross-over design; format: in vivo, cynomolgus monkeys
From the text: (§1) Four monkeys were challenged with α-GalCer or vehicle using a cross-over design (approved by animal care and use committees at the Children's Hospital Boston and the Charles River Laboratory), which minimized the effects of genetic variation and the differing past histories in each of the outbred monkeys. […] Each adult cynomolgus monkey was anesthetized, intubated and challenged with nebulized α-GalCer or vehicle. For safety reasons and to avoid any possible toxic effects of α-GalCer that might cause AHR, a dose escalation approach was used, starting with a very low dose of α-GalCer (150 μg/m^2), similar to the lowest doses used intravenously in Phase I safety studies in humans with solid tumors. Only one dose of α-GalCer was administered to the monkeys before evaluation of AHR, because following activation with α-GalCer, iNKT cells become anergic temporarily (53). 24 hours after challenge, the monkeys were reintubated and assessed for AHR by measuring lung resistance (RL) in response to increasing concentrations of methacholine.

iNKT cells [2] = test: BAL fluid secondary outcomes after α-GalCer challenge; format: in vivo, cynomolgus monkeys; conditions: monkeys, after α-GalCer vs vehicle
From the text: as §1

iNKT cells [3] = conditions: cited from earlier work

CCCCCCCCCCCCCCCCCCCCCCCCCC(=O)N[C@@H](CO[C@H]1O[C@H](CO)[C@H](O)[C@H](O)[C@H]1O)[C@H](O)[C@H](O)CCCCCCCCCCCCCC [α-GalCer, α-GalactosylCeramide]
percentage change in lung resistance (RL) from baseline compared to vehicle control (iNKT cells [1]; combined data of four monkeys, highest dose of methacholine, paired T test p=0.0003): significantly higher
AHR compared to challenge with vehicle control, monkeys responding (iNKT cells [1]; first very low inhaled dose 150 μg/m^2, 24 h after challenge, four monkeys): three of the four monkeys developed significantly increased AHR
AHR response of monkey B (non-responder to first dose) (iNKT cells [1]; higher dose 600 μg/m^2, 24 h after challenge): developed a significant AHR response
induction of airway hyperreactivity (AHR) (iNKT cells [1]; monkeys, α-GalCer challenge in the absence of ozone or allergen): induced AHR; also recorded: resulted in the development of significant AHR; also recorded: induces airway hyperreactivity
increased IL-4 in the BAL fluid (secondary outcome) (iNKT cells [2]): did not reach statistical significance
increased eosinophils in the BAL fluid (secondary outcome) (iNKT cells [2]): did not reach statistical significance
increased iNKT cells in the BAL fluid (secondary outcome) (iNKT cells [2]): did not reach statistical significance
increased neutrophils in the BAL fluid (secondary outcome) (iNKT cells [2]): did not reach statistical significance
induction of AHR in wildtype / naïve mice (iNKT cells [3]; administered into the lungs / intranasally): causes AHR; also recorded: results in the development of AHR
induction of AHR / effects in iNKT (NKT) cell deficient mice (iNKT cells [3]; administered into the lungs): no effects
induction of AHR in class II−/− mice (lack conventional CD4+ T cells) (iNKT cells [3]; without allergen administration): functioned to induce AHR
